Biological target: T1, visual cycle isomerase (Bovine RPE microsome membranes) (Bos taurus, UniProt Q28175)
T1 construct: Bovine Retinal Pigment Epithelium (RPE) microsome membranes were the source of a visual cycle isomerase; from tissue; host or cells: bovine retinal pigment epithelium microsome membranes
T1 sequence (Q28175 2-533 limits assumed): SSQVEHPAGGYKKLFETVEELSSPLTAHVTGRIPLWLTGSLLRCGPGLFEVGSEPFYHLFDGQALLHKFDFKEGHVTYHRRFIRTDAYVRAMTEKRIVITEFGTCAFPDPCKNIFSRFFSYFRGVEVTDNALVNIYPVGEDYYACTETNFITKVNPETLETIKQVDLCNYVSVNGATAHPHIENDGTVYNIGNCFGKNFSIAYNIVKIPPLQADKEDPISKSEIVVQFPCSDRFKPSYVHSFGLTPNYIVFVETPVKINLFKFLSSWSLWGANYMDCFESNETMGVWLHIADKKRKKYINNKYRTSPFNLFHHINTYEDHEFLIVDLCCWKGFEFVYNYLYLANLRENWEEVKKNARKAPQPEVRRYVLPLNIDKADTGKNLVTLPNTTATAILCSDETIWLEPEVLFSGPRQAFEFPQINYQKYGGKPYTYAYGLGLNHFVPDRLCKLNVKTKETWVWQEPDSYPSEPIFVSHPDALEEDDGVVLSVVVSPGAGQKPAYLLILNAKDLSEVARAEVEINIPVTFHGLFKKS
Assay: In vitro isomerase inhibition assay, bovine RPE microsome membranes
Type: biochemical
Conditions: bovine RPE microsomes; 11-cis retinol formation
Procedure: The capability of alkynyl phenyl-linked amine derivative compounds to inhibit the activity of a visual cycle isomerase was determined.
Bovine Retinal Pigment Epithelium (RPE) microsome membranes were the source of a visual cycle isomerase.
Crude RPE microsome extracts were thawed in a 37° C. water bath, and then immediately placed on ice. 50 ml crude RPE microsomes were placed into a 50 ml Teflon-glass homogenizer (Fisher Scientific, catalog no. 0841416M) on ice, powered by a hand-held DeWalt drill, and homogenized ten times up and down on ice under maximum speed. This process was repeated until the crude RPE microsome solution was homogenized. The homogenate was then subjected to centrifugation (50.2 Ti rotor (Beckman, Fullerton, Calif.), 13,000 RPM; 15360 Rcf) for 15 minutes at 4° C. The supernatant was collected and subjected to centrifugation at 42,000 RPM (160,000 Rcf; 50.2 Ti rotor) for 1 hour at 4° C. The supernatant was removed, and the pellets were suspended in 12 ml (final volume) cold 10 mM MOPS buffer, pH 7.0. The resuspended RPE membranes in 5 ml aliquots were homogenized in a glass-to-glass homogenizer (Fisher Scientific, catalog no. K885500-0021) to high homogeneity. Protein concentration was quantified using the BCA protein assay according to the manufacturer's protocol (Pierce, Rockford, Ill.). The homogenized RPE preparations were stored at −80° C.
Recombinant human apo cellular retinaldehyde-binding protein (CRALBP) was cloned and expressed according to standard methods in the molecular biology art (see Crabb et al., Protein Science 7:746-57 (1998); Crabb et al., J. Biol. Chem. 263:18688-92 (1988)). Briefly, total RNA was prepared from confluent ARPE19 cells (American Type Culture Collection, Manassas, Va.), cDNA was synthesized using an oligo(dT)12-18 primer, and then DNA encoding CRALBP was amplified by two sequential polymerase chain reactions (see Crabb et al., J. Biol. Chem. 263:18688-92 (1988); Intres, et al., J. Biol. Chem. 269:25411-18 (1994); GenBank Accession No. L34219.1). The PCR product was sub-cloned into pTrcHis2-TOPO TA vector according to the manufacturer's protocol (Invitrogen Inc., Carlsbad, Calif.; catalog no. K4400-01), and then the sequence was confirmed according to standard nucleotide sequencing techniques. Recombinant 6×His-tagged human CRALBP was expressed in One Shot TOP 10 chemically competent E. coli cells (Invitrogen), and the recombinant polypeptide was isolated from E. coli cell lysates by nickel affinity chromatography using nickel (Ni) Sepharose XK16-20 columns for HPLC (Amersham Bioscience, Pittsburgh, Pa.; catalog no. 17-5268-02). The purified 6×His-tagged human CRALBP was dialyzed against 10 mM bis-tris-Propane (BTP) and analyzed by SDS-PAGE. The molecular weight of the recombinant human CRALBP was approximately 39 kDal.
Alkkynyl phenyl-linked amine derivative compounds and control compounds were reconstituted in ethanol to 0.1 M. Ten-fold serial dilutions (10^−2, 10^−3, 10^−4, 10^−5, 10^−6 M) in ethanol of each compound were prepared for analysis in the isomerase assay.
The isomerase assay was performed in 10 mM bis-tris-propane (BTP) buffer, pH 7.5, 0.5% BSA (diluted in BTP buffer), 1 mM sodium pyrophosphate, 20 μM all-trans retinol (in ethanol), and 6 μM apo-CRALBP. The test compounds (2 μl) (final […] dilution of serial dilution stocks) were added to the above reaction mixture to which RPE microsomes were added. The same volume of ethanol was added to the control reaction (absence of test compound). Bovine RPE microsomes (9 μl) (see above) were then added, and the mixtures transferred to 37° C. to initiate the reaction (total volume=150 μl). The reactions were stopped after 30 minutes by adding methanol (300 μl). Heptane was added (300 μl) and mixed into the reaction mixture by pipetting. Retinoid was extracted by agitating the reaction mixtures, followed by centrifugation in a microcentrifuge. […]

Row | IC50 [µM] | SMILES
1 | ≤ 10 | NCCCc1cccc(C#C[C@@H](O)c2ccccc2)c1 [Example 26, (S)-3-(3-(3-Aminopropyl)phenyl)-1-phenylprop-2-yn-1-ol]
2 | ≤ 1 | NCCCc1cccc(C#CC2(O)CCCC2)c1 [Example 24, 1-((3-(3-Aminopropyl)phenyl)ethynyl)cyclopentanol]
3 | ≤ 1 | CC(C)C(O)(C#Cc1cccc(OCCN)c1)C(C)C [Example 28, 1-(3-(2-Aminoethoxy)phenyl)-3-isopropyl-4-methylpent-1-yn-3-ol]
4 | ≤ 1 | NCCCc1cccc(C#Cc2ccccc2)c1 [Example 37, 3-(3-(Phenylethynyl)phenyl)propan-1-amine]
5 | ≤ 1 | NCCOc1cccc(C#CC2CCCCC2)c1 [Example 80, 2-(3-(Cyclohexylethynyl)phenoxy)ethanamine]
6 | ≤ 1 | NCCCc1cccc(C#Cc2ccccn2)c1 [Example 61, 3-(3-(Pyridin-2-ylethynyl)phenyl)propan-1-amine]
7 | ≤ 1 | NCCC(O)c1cccc(C#CCCc2ccccc2)c1 (stereo not drawn) [Example 69, 3-Amino-1-(3-(4-phenylbut-1-ynyl)phenyl)propan-1-ol]
8 | ≤ 1 | NCCOc1cccc(C#CC2(O)CCCC2)c1 [Example 31, 1-((3-(2-Aminoethoxy)phenyl)ethynyl)cyclopentanol]
9 | ≤ 1 | NCCC(O)c1cccc(C#CC2(O)CCCCCC2)c1 (stereo not drawn) [Example 59, 1-((3-(3-Amino-1-hydroxypropyl)phenyl)ethynyl)cycloheptanol]
10 | ≤ 1 | CCCC(O)(C#Cc1cccc(CCCN)c1)CCC [Example 2, 4-((3-(3-Aminopropyl)phenyl)ethynyl)heptan-4-ol]
11 | ≤ 1 | NCCOc1cccc(C#CCCCCO)c1 [Example 74, 6-(3-(2-Aminoethoxy)phenyl)hex-5-yn-1-ol]
12 | ≤ 1 | NCCC(O)c1cccc(C#CC2CCCC2)c1 (stereo not drawn) [Example 47, 3-Amino-1-(3-(cyclopentylethynyl)phenyl)propan-1-ol]
13 | ≤ 1 | NCCOc1cccc(C#CC2(O)CCCCC2)c1 [Example 57, 1-((3-(2-Aminoethoxy)phenyl)ethynyl)cyclohexanol]
14 | ≤ 1 | NCCCc1cccc(C#CC2CCCC2)c1 [Example 38, 3-(3-(Cyclopentylethynyl)phenyl)propan-1-amine]
15 | ≤ 1 | NCCOc1cccc(C#CC2(O)CCCCCC2)c1 [Example 78, 1-((3-(2-aminoethoxy)phenyl)ethynyl)-cycloheptanol]
16 | ≤ 1 | CCCC(O)(C#Cc1cccc(OCCN)c1)CCC [Example 18, 4-((3-(2-Aminoethoxy)phenyl)ethynyl)heptan-4-ol]
17 | ≤ 1 | NCCC(O)c1cccc(C#CCCCCO)c1 (stereo not drawn) [Example 50, 6-(3-(3-Amino-1-hydroxypropyl)phenyl)hex-5-yn-1-ol]
18 | ≤ 1 | NCCOc1cccc(C#CC2CCCC2)c1 [Example 79, 2-(3-(Cyclopentylethynyl)phenoxy)-ethanamine]
19 | ≤ 1 | NCCOc1cccc(C#CC2(O)CCSCC2)c1 [Example 55, 4-((3-(2-Aminoethoxy)Phenyl)Ethynyl)Tetrahydro-2H-Thiopyran-4-ol]
20 | ≤ 1 | COc1ccccc1C#Cc1cccc(C(O)CCN)c1 (stereo not drawn) [Example 54, 3-Amino-1-(3-((2-Methoxyphenyl)Ethynyl)Phenyl)Propan-1-ol]

Row | IC50 [µM] | SMILES
21 | ≤ 1 | CCC(O)(C#Cc1cccc(CCCN)c1)CC [Example 1, 1-(3-(3-Aminopropyl)phenyl)-3-ethylpent-1-yn-3-ol]
22 | ≤ 1 | NCCC(O)c1cccc(C#CC2(O)CCCCC2)c1 (stereo not drawn) [Example 99, 1-((3-(3-Amino-1-hydroxypropyl)phenyl)ethynyl)cyclohexanol]
23 | ≤ 1 | NCCC(O)c1cccc(C#CCCO)c1 (stereo not drawn) [Example 51, 4-(3-(3-Amino-1-hydroxypropyl)phenyl)but-3-yn-1-ol]
24 | ≤ 1 | CCCC(O)(C#Cc1cccc([C@@H](O)CCN)c1)CCC [Compound 101, (S)-4-((3-(3-Amino-1-Hydroxypropyl)Phenyl)Ethynyl)Heptan-4-ol]
25 | ≤ 10 | NCCCc1cccc(C#Cc2ccncc2)c1 [Example 63, 3-(3-(Pyridin-4-ylethynyl)phenyl)propan-1-amine]
26 | ≤ 1 | NCCC(O)c1cccc(C#CC2CCCCC2)c1 (stereo not drawn) [Example 52, 3-Amino-1-(3-(Cyclohexylethynyl)Phenyl)Propan-1-ol]
27 | ≤ 10 | NCCOc1cccc(C#Cc2cccnc2)c1 [Example 62, 2-(3-(Pyridin-3-ylethynyl)phenoxy)ethanamine]
28 | ≤ 1 | COc1ccccc1C#Cc1cccc(CCCN)c1 [Example 36, 3-(3-((2-Methoxyphenyl)Ethynyl)Phenyl)Propan-1-Amine]
29 | ≤ 1 | CCCC(C#Cc1cccc(CCCN)c1)(CCC)OC [Example 4, 3-(3-(3-Methoxy-3-propylhex-1-ynyl)phenyl)propan-1-amine]
30 | ≤ 1 | CC(C)C(O)(C#Cc1cccc(CCCN)c1)C(C)C [Example 32, 1-(3-(3-Aminopropyl)phenyl)-3-isopropyl-4-methylpent-1-yn-3-ol]
31 | ≤ 10 | CC(=O)NCCCc1cccc(C#CC2(O)CCCCC2)c1 [Example 60, N-(3-(3-((1-Hydroxycyclohexyl)Ethynyl)Phenyl)Propyl)Acetamide]
32 | ≤ 1 | CC(C)(C)C(C)(O)C#Cc1cccc(CCCN)c1 (stereo not drawn) [Example 25, 1-(3-(3-Aminopropyl)phenyl)-3,4,4-trimethylpent-1-yn-3-ol]
33 | ≤ 1 | CCCC(O)C#Cc1cccc(CCCN)c1 (stereo not drawn) [Example 8, 1-(3-(3-Aminopropyl)phenyl)hex-1-yn-3-ol]
34 | ≤ 1 | CC(C)(O)C#Cc1cccc(CCCN)c1 [Example 7, 4-(3-(3-Aminopropyl)phenyl)-2-methylbut-3-yn-2-ol]
35 | ≤ 1 | CCC(O)(C#Cc1cccc(OCCN)c1)CC [Example 27, 1-(3-(2-Aminoethoxy)phenyl)-3-ethylpent-1-yn-3-ol]
36 | ≤ 1 | CCCC(O)(C#Cc1cccc(C(O)CCN)c1)CCC (stereo not drawn) [Example 19, 4-((3-(3-Amino-1-hydroxypropyl)phenyl)ethynyl)heptan-4-ol]
37 | ≤ 10 | NCCOc1cccc(C#Cc2ccccc2)c1 [Example 81, 2-(3-(Phenylethynyl)phenoxy)-ethanamine]
38 | ≤ 1 | CCCC(O)(C#Cc1cccc([C@H](O)CCN)c1)CCC [Compound 100, (R)-4-((3-(3-Amino-1-Hydroxypropyl)Phenyl)Ethynyl)Heptan-4-ol]
39 | ≤ 1 | NCCCc1cccc(C#CC2(O)CCCCC2)c1 [Example 11, 1-((3-(3-Aminopropyl)phenyl)ethynyl)cyclohexanol]

— patent publication US8492589B2, “Alkynyl phenyl derivative compounds for treating ophthalmic diseases and disorders” (Acucela Inc., priority 2007, dated 2013)
